What all share (type): binding
Assay [1] has as its target T1, CYP147G1 (Mycobacterium marinum, UniProt B2HE89).
T1 construct: produced in E. coli, purified by two ion exchange steps; ferric heme
T1 sequence (B2HE89 1-422): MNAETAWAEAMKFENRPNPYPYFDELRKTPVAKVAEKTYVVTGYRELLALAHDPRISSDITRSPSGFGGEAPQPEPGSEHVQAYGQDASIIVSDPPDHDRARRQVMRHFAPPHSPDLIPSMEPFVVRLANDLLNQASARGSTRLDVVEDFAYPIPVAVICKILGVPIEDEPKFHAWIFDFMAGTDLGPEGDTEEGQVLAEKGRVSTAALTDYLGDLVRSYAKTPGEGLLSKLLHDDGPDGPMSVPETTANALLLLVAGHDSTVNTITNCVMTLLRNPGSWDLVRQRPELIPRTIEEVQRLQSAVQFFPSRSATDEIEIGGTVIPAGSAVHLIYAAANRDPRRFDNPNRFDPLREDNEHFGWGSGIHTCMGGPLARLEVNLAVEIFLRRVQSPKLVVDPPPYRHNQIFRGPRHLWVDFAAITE
Kind of assay: UV/Vis heme spin-state shift. To be noted: purified ferric enzyme; also oxidised to indigo in E. coli with FdR1/Fdx3.

The next assay concerns the target T2, CYP269A1 (Mycobacterium marinum, UniProt B2HPM5).
T2 construct: produced in E. coli and purified; high-spin-like ferric heme (Soret 390 nm); gene near ferredoxin gene Mmar_3973 (Fdx4)
T2 sequence (B2HPM5 1-403): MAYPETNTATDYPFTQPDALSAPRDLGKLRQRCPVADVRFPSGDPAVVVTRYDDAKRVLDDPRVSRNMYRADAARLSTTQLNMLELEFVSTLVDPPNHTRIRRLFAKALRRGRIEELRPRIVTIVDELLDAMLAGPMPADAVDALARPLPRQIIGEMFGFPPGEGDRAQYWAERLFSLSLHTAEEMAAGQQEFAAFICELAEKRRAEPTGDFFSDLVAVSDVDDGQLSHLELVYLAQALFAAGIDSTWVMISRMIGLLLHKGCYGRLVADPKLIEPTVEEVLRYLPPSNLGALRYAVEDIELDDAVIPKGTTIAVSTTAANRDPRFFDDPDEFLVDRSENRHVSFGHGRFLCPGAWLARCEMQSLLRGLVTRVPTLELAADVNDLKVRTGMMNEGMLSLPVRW
As to the kind of experiment: UV/Vis heme Soret shift titration.

In assay [2] the target is T1, CYP147G1. As to the kind of experiment: UV/Vis heme spin-state shift titration. To be noted: read-out: dissociation constant.
The next assay addresses T3, CYP150A5 (Mycobacterium marinum, UniProt B2HG29).
T3 construct: produced in E. coli and purified; ferric heme; gene near ferredoxin gene Mmar_4736 (Fdx8)
T3 sequence (B2HG29 1-423): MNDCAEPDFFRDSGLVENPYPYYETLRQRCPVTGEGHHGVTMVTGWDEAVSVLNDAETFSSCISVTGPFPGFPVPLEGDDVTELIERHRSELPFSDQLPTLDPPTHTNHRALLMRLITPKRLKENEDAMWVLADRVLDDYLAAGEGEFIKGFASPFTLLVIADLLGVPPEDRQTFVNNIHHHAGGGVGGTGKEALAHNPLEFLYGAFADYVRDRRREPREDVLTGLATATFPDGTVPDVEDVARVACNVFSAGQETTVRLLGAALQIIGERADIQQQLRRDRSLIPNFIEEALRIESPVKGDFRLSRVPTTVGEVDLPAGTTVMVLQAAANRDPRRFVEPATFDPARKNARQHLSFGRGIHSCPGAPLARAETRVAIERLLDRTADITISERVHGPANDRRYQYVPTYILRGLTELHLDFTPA
Kind of assay: UV/Vis heme spin-state shift titration.

The target in the next assay is T4, CYP278A1 (Mycobacterium marinum, UniProt B2HE37).
T4 construct: produced in E. coli and purified; ferric heme; gene near ferredoxin gene Mmar_2879 (Fdx2)
T4 sequence (B2HE37 1-427): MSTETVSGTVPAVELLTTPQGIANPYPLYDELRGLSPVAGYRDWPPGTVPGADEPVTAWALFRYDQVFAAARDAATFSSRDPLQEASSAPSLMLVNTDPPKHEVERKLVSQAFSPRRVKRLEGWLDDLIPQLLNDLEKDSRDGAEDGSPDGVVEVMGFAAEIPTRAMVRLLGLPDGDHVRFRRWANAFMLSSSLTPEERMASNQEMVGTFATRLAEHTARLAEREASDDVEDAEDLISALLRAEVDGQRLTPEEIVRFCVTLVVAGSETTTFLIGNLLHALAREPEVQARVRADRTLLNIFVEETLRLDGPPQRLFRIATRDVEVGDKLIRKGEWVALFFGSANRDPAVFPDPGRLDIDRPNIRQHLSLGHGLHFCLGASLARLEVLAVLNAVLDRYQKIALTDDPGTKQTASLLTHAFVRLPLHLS
As to the kind of experiment: UV/Vis heme spin-state shift titration.

This note sets out measurements from article PMC6237146, “Electron transfer ferredoxins with unusual cluster binding motifs support secondary metabolism in many bacteria” (Chemical Science, 2018).

Structures are written as SMILES. Bounds are passed on as bounds.

With `c1ccc2[nH]ccc2c1` [indole], the “% high-spin” value on CYP147G1 [1] is less than 5%.

For `Clc1ccc(COC(Cn2ccnc2)c2ccc(Cl)cc2Cl)c(Cl)c1` (centres unmarked) [miconazole], on CYP269A1, the Kd turned out to be 0.05 ± 0.007 µM. For `CCCCCCCCCCC(=O)O` [undecanoic acid], on CYP147G1 [2], the Kd was determined as 25 ± 4 µM.

`CC(=O)/C=C/C1=C(C)CCCC1(C)C` [β-ionone]: the Kd at CYP150A5 stood at 41 ± 3 µM; on CYP278A1, 5.1 ± 1.5 µM.
